Converted amounts (≈) assume the structure as drawn. The source made the active and inactive calls. The rule behind the calls is not given here.
Assays:
Staphylococcus aureus [1] = assay: Antibacterial activity against methicillin-resistant Staphylococcus aureus JCSC 2172 after 8 to 12 hrs by resazurin dye based microdilution method; type: functional
Staphylococcus aureus [2] = assay: Antibacterial activity against drug-susceptible Staphylococcus aureus ATCC 6538 after 8 to 12 hrs by resazurin dye based microdilution method; type: functional
Bacillus thuringiensis = assay: Antibacterial activity against Bacillus thuringiensis ATCC 10792 after 8 to 12 hrs by resazurin dye based microdilution method; type: functional
[3] = Solubility of the compound in DMSO; type: physicochemical
[4] = Selectivity ratio of IC50 for mouse RAW264.7 cells to MIC for methicillin-resistant Staphylococcus aureus JCSC 2172; type: ADME
[5] = Cytotoxicity against mouse RAW264.7 cells assessed as reduction in cell viability after 24 hrs by MTT assay; type: toxicity
Bacillus cereus = assay: Antibacterial activity against Bacillus cereus ATCC 10876 after 8 to 12 hrs by resazurin dye based microdilution method; type: functional
Escherichia coli = assay: Antibacterial activity against Escherichia coli ATCC 8739 after 8 to 12 hrs by resazurin dye based microdilution method; type: functional
Bacillus subtilis = assay: Antibacterial activity against Bacillus subtilis ATCC 11774 after 8 to 12 hrs by resazurin dye based microdilution method; type: functional
Staphylococcus aureus [6] = assay: Bactericidal activity against methicillin-resistant Staphylococcus aureus JCSC 2172 assessed as 3-log reduction in bacterial colony at 4 times MIC after 10 hrs by time-kill assay; type: functional
Staphylococcus aureus [7] = assay: Induction of cell lysis in methicillin-resistant Staphylococcus aureus JCSC 2172 at 8 times MIC after 4 hrs by osmium tetroxide staining based scanning electron microscopic method; type: functional
Staphylococcus aureus [8] = assay: Bactericidal activity against methicillin-resistant Staphylococcus aureus JCSC 2172 assessed as 3-log reduction in bacterial colony at 4 times MIC up to 4 hrs by time-kill assay; type: functional
Staphylococcus aureus [9] = assay: Bactericidal activity against methicillin-resistant Staphylococcus aureus JCSC 2172 assessed induction of membrane potential dissipation at 0.5 to 8 times MIC by DiSC3-5 probe based fluorescence assay; type: functional
Staphylococcus aureus [10] = assay: Bactericidal activity against methicillin-resistant Staphylococcus aureus JCSC 2172 assessed as reduction in CFU count at 4 times MIC after 24 hrs by time-kill assay; type: functional; design: scale not given: the % may be the effect or the level left
Staphylococcus aureus [11] = assay: Potency index, ratio of vancomycin MIC to compound MIC for methicillin-resistant Staphylococcus aureus JCSC 2172; type: functional
Staphylococcus aureus [12] = assay: Bacteriostatic activity against methicillin-resistant Staphylococcus aureus JCSC 2172 at 0.5 to 2 times MIC up to 10 hrs by time-kill assay; type: functional
Staphylococcus aureus [13] = assay: Disruption of cytoplasmic membrane potential in methicillin-resistant Staphylococcus aureus JCSC 2172 at 8 times MIC after 4 hrs by SYTOX green dye based fluorescence assay; type: functional
Staphylococcus aureus [14] = assay: Disruption of cytoplasmic membrane potential in methicillin-resistant Staphylococcus aureus JCSC 2172 at 10 ug/ml after 4 hrs by SYTOX green dye based fluorescence assay; type: functional

SMILES | MIC (Staphylococcus aureus [1]) | MIC (Staphylococcus aureus [2]) | MIC (Bacillus thuringiensis) | selectivity ratio [4] | IC50 at 24 h [5] | MIC (Bacillus cereus) | MIC (Escherichia coli) | MIC (Bacillus subtilis) | other results
CC(C)C[C@@H](C1=C(O)C(C)(C)C(=O)C(C)(C)C1=O)c1c(O)cc(O)c(C(=O)C2CCCCC2)c1O | 4 µg/mL (≈ 8.22 µM) | 4 µg/mL (≈ 8.22 µM) | – | – | – | – | – | – | –
CCCCC(=O)c1c(O)cc(O)c([C@@H](CC(C)C)C2=C(O)C(C)(C)C(=O)C(C)(C)C2=O)c1O | 8 µg/mL (≈ 17.4 µM) | 4 µg/mL (≈ 8.68 µM) | – | – | – | – | – | – | –
CCCC(=O)c1c(O)cc(O)c([C@@H](CC(C)C)C2=C(O)C(C)(C)C(=O)C(C)(C)C2=O)c1O | 32 µg/mL (≈ 71.7 µM) | 32 µg/mL (≈ 71.7 µM) | – | – | – | – | – | – | –
CCCCCCCCCCCCCC(=O)c1c(O)cc(O)c([C@@H](CC(C)C)C2=C(O)C(C)(C)C(=O)C(C)(C)C2=O)c1O | 1 µg/mL (≈ 1.7 µM) | 0.5 µg/mL (≈ 0.852 µM) | 2 µg/mL (≈ 3.41 µM) | 13.1 | 13.1 µg/mL (≈ 22.3 µM) | 4 µg/mL (≈ 6.82 µM) | > 32 µg/mL | 8 µg/mL (≈ 13.6 µM) | solubility [3]: Insoluble
CCCCCCCCCCCCCCCC(=O)c1c(O)cc(O)c([C@@H](CC(C)C)C2=C(O)C(C)(C)C(=O)C(C)(C)C2=O)c1O | 1 to 2 µg/mL (≈ 1.63 to 3.25 µM) | 1 µg/mL (≈ 1.63 µM) | 2 µg/mL (≈ 3.25 µM) | 17.5 | 17.5 µg/mL (≈ 28.5 µM) | 8 µg/mL (≈ 13 µM) | > 32 µg/mL | 16 µg/mL (≈ 26 µM) | solubility [3]: Insoluble
CC(C)C[C@@H](C1=C(O)C(C)(C)C(=O)C(C)(C)C1=O)c1c(O)cc(O)c(C(=O)C2CCCC2)c1O | > 32 µg/mL | 32 µg/mL (≈ 67.7 µM) | – | – | – | – | – | – | –
CCCCCC(=O)c1c(O)cc(O)c([C@@H](CC(C)C)C2=C(O)C(C)(C)C(=O)C(C)(C)C2=O)c1O | 2 µg/mL (≈ 4.21 µM) | 2 µg/mL (≈ 4.21 µM) | – | – | – | – | – | – | –
CN[C@H](CC(C)C)C(=O)N[C@H]1C(=O)N[C@@H](CC(N)=O)C(=O)N[C@H]2C(=O)N[C@H]3C(=O)N[C@H](C(=O)N[C@H](C(=O)O)c4cc(O)cc(O)c4-c4cc3ccc4O)[C@H](O)c3ccc(c(Cl)c3)Oc3cc2cc(c3O[C@@H]2O[C@H](CO)[C@@H](O)[C@H](O)[C@H]2O[C@H]2C[C@](C)(N)[C@H](O)[C@H](C)O2)Oc2ccc(cc2Cl)[C@H]1O [VANCOMYCIN] | – | – | 1 µg/mL (≈ 0.69 µM) | – | – | 0.25 µg/mL (≈ 0.173 µM) | > 32 µg/mL | 0.13 µg/mL (≈ 0.0897 µM) | Activity (Staphylococcus aureus [6]): Active
CC(C)CC(=O)c1c(O)cc(O)c([C@@H](CC(C)C)C2=C(O)C(C)(C)C(=O)C(C)(C)C2=O)c1O | 8 µg/mL (≈ 17.4 µM) | 8 µg/mL (≈ 17.4 µM) | – | – | – | – | – | – | –
CCCCCCCCCC(=O)c1c(O)cc(O)c([C@@H](CC(C)C)C2=C(O)C(C)(C)C(=O)C(C)(C)C2=O)c1O | 0.25 µg/mL (≈ 0.471 µM) | 0.25 µg/mL (≈ 0.471 µM) | 0.5 µg/mL (≈ 0.942 µM) | 20.4 | 5.1 µg/mL (≈ 9.61 µM) | 1 µg/mL (≈ 1.88 µM) | > 32 µg/mL | 0.25 µg/mL (≈ 0.471 µM) | –
CCCCCCCCC(=O)c1c(O)cc(O)c([C@@H](CC(C)C)C2=C(O)C(C)(C)C(=O)C(C)(C)C2=O)c1O | 0.5 µg/mL (≈ 0.968 µM) | 0.25 µg/mL (≈ 0.484 µM) | 0.5 µg/mL (≈ 0.968 µM) | 16.4 | 8.2 µg/mL (≈ 15.9 µM) | 0.5 µg/mL (≈ 0.968 µM) | > 32 µg/mL | 0.25 µg/mL (≈ 0.484 µM) | –
CC(C)C[C@@H](C1=C(O)C(C)(C)C(=O)C(C)(C)C1=O)c1c(O)cc(O)c(C(=O)CCc2ccccc2)c1O | 8 µg/mL (≈ 15.7 µM) | 4 µg/mL (≈ 7.86 µM) | – | – | – | – | – | – | –
CCC(=O)c1c(O)cc(O)c([C@@H](CC(C)C)C2=C(O)C(C)(C)C(=O)C(C)(C)C2=O)c1O | 8 µg/mL (≈ 18.5 µM) | 8 µg/mL (≈ 18.5 µM) | – | – | – | – | – | – | –
CC(C)C[C@@H](C1=C(O)C(C)(C)C(=O)C(C)(C)C1=O)c1c(O)cc(O)c(C(=O)Cc2ccccc2)c1O | 16 µg/mL (≈ 32.4 µM) | 16 µg/mL (≈ 32.4 µM) | – | – | – | – | – | – | –
CC(C)C[C@@H](C1=C(O)C(C)(C)C(=O)C(C)(C)C1=O)c1c(O)cc(O)c(C(=O)C(C)C)c1O | 16 µg/mL (≈ 35.8 µM) | 16 µg/mL (≈ 35.8 µM) | – | – | – | – | – | – | –
CCCCCCCC(=O)c1c(O)cc(O)c([C@@H](CC(C)C)C2=C(O)C(C)(C)C(=O)C(C)(C)C2=O)c1O | 0.25 µg/mL (≈ 0.497 µM) | 0.25 µg/mL (≈ 0.497 µM) | 0.25 µg/mL (≈ 0.497 µM) | 20.4 | 5.1 µg/mL (≈ 10.1 µM) | 0.25 µg/mL (≈ 0.497 µM) | > 32 µg/mL | 0.13 µg/mL (≈ 0.259 µM) | Activity (Staphylococcus aureus [7]): Active; Activity (Staphylococcus aureus [8]): Active; Activity (Staphylococcus aureus [9]): Active; Activity (Staphylococcus aureus [10]): 99.99%; Ratio (Staphylococcus aureus [11]): 4; Activity (Staphylococcus aureus [12]): >90%; Activity (Staphylococcus aureus [13]): Active
CCCCCCC(=O)c1c(O)cc(O)c([C@@H](CC(C)C)C2=C(O)C(C)(C)C(=O)C(C)(C)C2=O)c1O | 0.5 µg/mL (≈ 1.02 µM) | 0.5 µg/mL (≈ 1.02 µM) | 0.5 µg/mL (≈ 1.02 µM) | 16.7 | 8.8 µg/mL (≈ 18 µM) | 0.5 µg/mL (≈ 1.02 µM) | > 32 µg/mL | 0.25 µg/mL (≈ 0.512 µM) | –
CC(C)C[C@@H](C1=C(O)C(C)(C)C(=O)C(C)(C)C1=O)c1c(O)cc(O)c(C=O)c1O | > 32 µg/mL | > 32 µg/mL | – | – | – | – | – | – | –
CCCCCCCCCCCC(=O)c1c(O)cc(O)c([C@@H](CC(C)C)C2=C(O)C(C)(C)C(=O)C(C)(C)C2=O)c1O | 0.5 µg/mL (≈ 0.895 µM) | 0.5 µg/mL (≈ 0.895 µM) | 0.5 µg/mL (≈ 0.895 µM) | 15.8 | 7.9 µg/mL (≈ 14.1 µM) | 1 µg/mL (≈ 1.79 µM) | > 32 µg/mL | 0.25 µg/mL (≈ 0.447 µM) | –
CC(C)C[C@@H](C1=C(O)C(C)(C)C(=O)C(C)(C)C1=O)c1c(O)cc(O)c(C(=O)C2CCC2)c1O | 16 µg/mL (≈ 34.9 µM) | 16 µg/mL (≈ 34.9 µM) | – | – | – | – | – | – | –
CC[C@H](C)[C@H](NC(=O)CN)C(=O)NCC(=O)N[C@@H](C)C(=O)N[C@H](C(=O)N[C@@H](CC(C)C)C(=O)N[C@@H](CCCCN)C(=O)N[C@H](C(=O)N[C@@H](CC(C)C)C(=O)N[C@H](C(=O)N[C@H](C(=O)NCC(=O)N[C@@H](CC(C)C)C(=O)N1CCC[C@H]1C(=O)N[C@@H](C)C(=O)N[C@@H](CC(C)C)C(=O)N[C@H](C(=O)N[C@@H](CO)C(=O)N[C@@H](Cc1c[nH]c2ccccc12)C(=O)N[C@H](C(=O)N[C@@H](CCCCN)C(=O)N[C@@H](CCCNC(=N)N)C(=O)N[C@@H](CCCCN)C(=O)N[C@@H](CCCNC(=N)N)C(=O)N[C@@H](CCC(N)=O)C(=O)N[C@@H](CCC(N)=O)C(N)=O)[C@@H](C)CC)[C@@H](C)CC)[C@@H](C)O)[C@@H](C)O)C(C)C)C(C)C | – | – | – | – | – | – | – | – | Activity (Staphylococcus aureus [14]): Active
CCCCCCCCCCC(=O)c1c(O)cc(O)c([C@@H](CC(C)C)C2=C(O)C(C)(C)C(=O)C(C)(C)C2=O)c1O | 0.5 µg/mL (≈ 0.918 µM) | 0.25 µg/mL (≈ 0.459 µM) | 0.25 µg/mL (≈ 0.459 µM) | 22.2 | 11.1 µg/mL (≈ 20.4 µM) | 0.5 µg/mL (≈ 0.918 µM) | > 32 µg/mL | 0.25 µg/mL (≈ 0.459 µM) | –
CC(=O)c1c(O)cc(O)c([C@@H](CC(C)C)C2=C(O)C(C)(C)C(=O)C(C)(C)C2=O)c1O | 4 µg/mL (≈ 9.56 µM) | 4 µg/mL (≈ 9.56 µM) | – | – | – | – | – | – | –

Source: ChEMBL document CHEMBL3877269, “Structure-activity relationships and optimization of acyclic acylphloroglucinol analogues as novel antimicrobial agents” (Eur J Med Chem, 2017)
